Assays:
[1] = flame extension test; format: physicochemical; conditions: propellant
Experimental: In one embodiment, the photoprotective composition concentrate and propellant are added to an aerosol container in a ratio of about 70:30 to about 60:40. The tetraflouroethane and difluoroethane propellants were tested and are non-flammable in view of the flame extension test.
In another embodiment, the photoprotective composition concentrate and propellant are added to an aerosol container in a ratio of about 70:30. The tetraflouroethane and isobutene propellants were evaluated to determine what blends of tetraflouroethane and isobutene propellants would provide a non-flammable product at a reasonable cost. […] In some embodiments having a photoprotective composition comprising a concentrate and at least one propellant, the ratio of the photoprotective composition and the propellant can be between about 2.5:1 and about 1.25:1.

[2] = solubility/compatibility and stability observations in the compositions; format: physicochemical; conditions: three (3) months at 40° C.
Source text: With regard to the photoprotective compositions of the present disclosure, it was observed that high levels of isohexadecane, especially those of about 70 wt. %, limited the solubility and/or compatibility of other ingredients which cause undesirable characteristics within the entire photoprotective composition such as, i.e., hazing, oily segregation, and/or precipitation from the composition, and combinations thereof. […] Dimethicone with a viscosity of about 350 cst at a 1 wt. % concentration, for example, causes hazing.

## CC(F)F [difluoroethane, 1,1-difluoroethane]
[1]
  flammability: non-flammable

## FCC(F)(F)F [tetraflouroethane]
[1]
  flammability: non-flammable

## COc1ccc(C(=O)CC(=O)c2ccc(C(C)(C)C)cc2)cc1 [avobenzone]
[2]
  storage stability: crystals appeared

Source: patent US20170189294A1, “Non-Irritating, Non-Whitening Photoprotective Compositions” (Eveready Battery Company, Inc., priority 2013, published 2017)
